We go through eight compounds from PubChem BioAssay (NCI).

Test systems include A498 renal; HCC-2998 colon; KM12 colon; M14 melanoma; NCI-H460 lung; OVCAR-4 ovarian; RXF 393 renal; SK-MEL-2 melanoma; SW-620 colon; UACC-62 melanoma.
Common to all, as to experiment: inhibition of tumour cell growth, NCI panel, 48 h

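Tested at 5 concentrations; 48 h exposure; 96-well plates; endpoints linearly interpolated, else capped at highest concentration. GI50 is the concentration that inhibits growth by half. TGI is the concentration that stops growth completely.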

With `COc1cccc2c1C(=O)c1c(O)c3c(c(O)c1C2=O)C[C@@](O)(C(=O)COC(=O)c1cccnc1)C[C@@H]3OC1CC(N)C(O)C(C)O1` (stereo not given in full), the GI50 in the test on A498 renal was 0.113 µM; in the test on HCC-2998 colon it was 0.454 µM; in the test with KM12 colon, 0.284 µM; in the test on M14 melanoma, 0.17 µM; with NCI-H460 lung, 0.0269 µM; with OVCAR-4 ovarian, 0.28 µM. The GI50 in the test with RXF 393 renal is 0.169 µM; in the test on SK-MEL-2 melanoma, 0.232 µM; in the test with SW-620 colon it was 0.0605 µM; with UACC-62 melanoma, 0.103 µM. The TGI in the test on A498 renal stood at 0.334 µM; in the test with HCC-2998 colon it was 3.5 µM; with KM12 colon it was 8.44 µM; in the test on M14 melanoma, 1.06 µM; with NCI-H460 lung it was 0.215 µM; with OVCAR-4 ovarian, 3.48 µM. Besides, the TGI was 0.589 µM with RXF 393 renal, 0.529 µM in the test with SK-MEL-2 melanoma, 2.17 µM in the test with SW-620 colon and 0.268 µM in the test on UACC-62 melanoma.

For the compound `CCCCC/C=C1\CCC(CN2CCOCC2)C1=O` (stereo not given), the TGI in the test with A498 renal worked out at 33.9 µM; with HCC-2998 colon, 27.7 µM; with KM12 colon, 10.7 µM; in the test with M14 melanoma it was 16.9 µM; in the test with NCI-H460 lung, 49.8 µM; with OVCAR-4 ovarian it was 48 µM. The TGI in the test with RXF 393 renal was 12.3 µM; in the test on SK-MEL-2 melanoma, 29.6 µM; in the test with SW-620 colon it was 11.5 µM; in the test with UACC-62 melanoma it was 28.5 µM.

As for `COc1ccccc1NC(=O)N/C(N)=N/c1nc2ccccc2s1`, the GI50 is 0.24 µM in the test with A498 renal; 0.375 µM with HCC-2998 colon; 0.0505 µM with KM12 colon; 0.0788 µM in the test with M14 melanoma; 0.115 µM in the test on NCI-H460 lung; 0.218 µM in the test with OVCAR-4 ovarian. Besides, the GI50 with RXF 393 renal was 0.0402 µM; in the test with SK-MEL-2 melanoma, 0.446 µM; in the test with SW-620 colon, 0.0531 µM; with UACC-62 melanoma, 0.0647 µM. Moreover, the TGI in the test with A498 renal, in the test on HCC-2998 colon, in the test with KM12 colon, in the test with M14 melanoma, in the test on NCI-H460 lung and in the test on OVCAR-4 ovarian was greater than 100 µM in each case. Moreover, the TGI in the test with RXF 393 renal was 0.731 µM; in the test with SK-MEL-2 melanoma, greater than 100 µM; with SW-620 colon, greater than 100 µM; in the test with UACC-62 melanoma, greater than 100 µM.

`N#CC(C(=N/NC(N)=S)/C(=N\NC(N)=S)C(C#N)c1ccccc1)c1ccccc1` (stereo not given): the TGI in the test on A498 renal, with HCC-2998 colon, in the test on KM12 colon, in the test with M14 melanoma, in the test with NCI-H460 lung and in the test on OVCAR-4 ovarian was greater than 10 µM each time. For the same compound, the TGI with RXF 393 renal, in the test on SK-MEL-2 melanoma, with SW-620 colon and with UACC-62 melanoma was greater than 10 µM in each case.

For the compound `CC(C)(C)c1ccc(NC(=O)c2cc(=O)c3ccccc3[nH]2)c(C(C)(C)C)c1O`, the GI50 with A498 renal was 4.33 µM; in the test on HCC-2998 colon, 3.04 µM; with KM12 colon, 3.13 µM; in the test on M14 melanoma, 3.81 µM; in the test with NCI-H460 lung it was 3.72 µM; in the test on OVCAR-4 ovarian, 4.18 µM. Moreover, the GI50 in the test with RXF 393 renal was 2.31 µM; with SK-MEL-2 melanoma it was 12.6 µM; in the test on SW-620 colon, 8.24 µM; in the test on UACC-62 melanoma, 9.65 µM. Moreover, the TGI worked out at 19.7 µM in the test on A498 renal; 10.4 µM with HCC-2998 colon; 8.53 µM with KM12 colon; 13.9 µM in the test on M14 melanoma; 13.9 µM in the test with NCI-H460 lung; 15.7 µM with OVCAR-4 ovarian. For the same compound, the TGI in the test on RXF 393 renal came to 5.16 µM; in the test on SK-MEL-2 melanoma, 26.4 µM; in the test with SW-620 colon, 27.1 µM; in the test with UACC-62 melanoma, 22.9 µM.

Take `CCC1(c2ccncc2)CCC(=O)NC1=O` (stereo not given): the TGI with A498 renal, with HCC-2998 colon, in the test on KM12 colon, in the test on M14 melanoma, with NCI-H460 lung and in the test on OVCAR-4 ovarian was greater than 100 µM each time. In addition, the TGI in the test with RXF 393 renal, in the test with SK-MEL-2 melanoma, with SW-620 colon and in the test on UACC-62 melanoma was greater than 100 µM throughout.

Consider `CC(=O)OC1CC(C)c2c1ncnc2N1CCN(C(=O)OC(C)(C)C)CC1` (stereo not given), for which the GI50 with A498 renal was 37.8 µM; in the test on HCC-2998 colon it was 69.6 µM; in the test on KM12 colon, 38.1 µM; in the test on M14 melanoma, 30.4 µM; in the test on NCI-H460 lung, 34.7 µM; with OVCAR-4 ovarian it was 63.6 µM. Further, the GI50 in the test with RXF 393 renal is 31.9 µM; with SK-MEL-2 melanoma, 35.5 µM; with SW-620 colon it was 42.9 µM; in the test on UACC-62 melanoma, 46.4 µM. For the same compound, the TGI with A498 renal, with HCC-2998 colon, with KM12 colon, with M14 melanoma, in the test on NCI-H460 lung and in the test with OVCAR-4 ovarian was greater than 100 µM each time. For the same compound, the TGI with RXF 393 renal was greater than 100 µM; with SK-MEL-2 melanoma, 93.1 µM; in the test on SW-620 colon, greater than 100 µM; with UACC-62 melanoma, greater than 100 µM.

With `C=C(C)[C@@H]1CC[C@]2(c3ncc(C)o3)CC[C@]3(C)[C@H](CC[C@@H]4[C@@](C)(CCC#N)[C@H](C(=C)C)CC[C@]43C)[C@@H]12`, the GI50 in the test with A498 renal is 14.4 µM; with HCC-2998 colon it was 3.51 µM; in the test with KM12 colon, 3.89 µM; in the test with M14 melanoma, 7.8 µM; with NCI-H460 lung it was 5.42 µM; in the test on OVCAR-4 ovarian, 4.38 µM. Moreover, the GI50 is 2.14 µM with RXF 393 renal, 16.4 µM in the test with SK-MEL-2 melanoma, 5.81 µM in the test on SW-620 colon and 2.38 µM with UACC-62 melanoma. The TGI worked out at 27.8 µM in the test on A498 renal; 12.4 µM in the test on HCC-2998 colon; 15.1 µM in the test on KM12 colon; 24.2 µM with M14 melanoma; 19.4 µM in the test with NCI-H460 lung; 17.3 µM with OVCAR-4 ovarian. For the same compound, the TGI in the test with RXF 393 renal was 5.12 µM; with SK-MEL-2 melanoma it was 33.7 µM; with SW-620 colon, 20.8 µM; in the test on UACC-62 melanoma, 6.96 µM.
